# From patent US20240002397A1, “3-AMINO PYRROLIDINE AND PIPERIDINE MACROCYCLIC OREXIN RECEPTOR AGONISTS” (Merck Sharp & Dohme LLC, priority 2020, published 2024)
# Target: T1, human OX2R (Homo sapiens, UniProt O43614)
# T1 sequence (O43614 1-444): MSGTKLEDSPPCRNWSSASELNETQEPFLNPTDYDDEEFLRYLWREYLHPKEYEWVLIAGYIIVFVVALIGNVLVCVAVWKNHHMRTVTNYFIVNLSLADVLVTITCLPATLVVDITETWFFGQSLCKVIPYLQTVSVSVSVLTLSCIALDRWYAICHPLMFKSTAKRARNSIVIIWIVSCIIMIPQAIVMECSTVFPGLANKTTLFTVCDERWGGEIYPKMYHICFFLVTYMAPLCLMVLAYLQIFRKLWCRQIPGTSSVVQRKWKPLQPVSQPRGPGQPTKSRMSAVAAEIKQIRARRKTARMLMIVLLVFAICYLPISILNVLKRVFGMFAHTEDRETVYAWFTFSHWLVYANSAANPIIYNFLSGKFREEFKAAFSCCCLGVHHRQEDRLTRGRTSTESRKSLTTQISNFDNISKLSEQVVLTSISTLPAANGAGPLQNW
# Experiment: IPOne (IP-1) orexin receptor agonist assay in CHO cells expressing human OX2R
# Conditions: CHO, hOX2R IP-One; percentage of mean max effect of a reference compound at 1 uM with 100% activity
row,SMILES,Emax
1,"COC[C@@H]1C[C@H](NS(C)(=O)=O)[C@@H]2COC3CCC(CC3)c3cccc(F)c3/C=C/OC(=O)N12 [Example 3, N-((2^1R,2^4R,5^2R,5^3S,5^5S,E)-1^3-fluoro-5^5-(methoxymethyl)-6-oxo-3,7-dioxa-5(2,1)-pyrrolidina-1(1,2)-benzena-2(1,4)-cyclohexanacyclonaphan-8-en-5^3-yl)methanesulfonamide]",99.5%
2,"COC[C@@H]1C[C@H](NS(C)(=O)=O)[C@@H]2COC3CCC(CC3)c3cccc(F)c3CCOC(=O)N12 [Example 6, N-((2^1R,2^4R,5^2R,5^3S, 5^5S)-1^3-fluoro-5^5-(methoxymethyl)-6-oxo-3,7-dioxa-5(2,1)-pyrrolidina-1(1,2)-benzena-2(1,4)-cyclo-hexanacyclonaphane-5^3-yl)methane sulfonamide]",100%
3,"CN(C)S(=O)(=O)N[C@H]1CCN2C(=O)CCCCOc3cccc(c3)[C@H]3CC[C@H](CC3)OC[C@@H]12 [Example 7, N′-((2^1S,2^4S,5^2R,5^3S)-6-oxo-3,11-dioxa-5(2,1)-pyrrolidina-1(1,3)-benzena-2(1,4)-cyclohexanacycloundecaphane-5^3-yl)-N,N-dimethyl-sulfamide]",104%
4,"CN(C)S(=O)(=O)N[C@H]1CCN2C(=O)OCCCOc3cccc(c3)[C@H]3CC[C@H](CC3)OC[C@@H]12 [Example 16, N′-((2^1S,2^4S, 5^2R,5^3S)-6-oxo-3,7,11-trioxa-5(2,1)-pyrrolidina-1(1,3)-benzena-2(1,4)-cyclohexana-cyclounde-caphane-5^3-yl)-N,N-dimethyl-sulfamide]",99.1%
5,"C[C@@H]1C[C@H](NS(C)(=O)=O)C2COC3CCC(CC3)c3cccc(c3)OCCCCC(=O)N21 (stereo partly shown) [Example 19, N-((2^1S,2^4S, 5^2R,5^3S,5^5R)-5^5-methyl-6-oxo-3,11-dioxa-5(2,1)-pyrrolidina-1(1,3)-benzena-2(1,4)-cyclohexana-cyclounde-caphane-5^3-yl) methanesulfonamide]",101%
6,"C[C@@H]1C[C@H](NS(C)(=O)=O)C2COC3CCC(CC3)c3cccc(c3)OCCCC(=O)N21 (stereo partly shown) [Example 20, N-((2^1S,2^4S, 5^2R,5^3S,5^5R)-5^5-methyl-6-oxo-3,10-dioxa-5(2,1)-pyrrolidina-1(1,3)-benzena-2(1,4)-cyclohexana-cyclodecaphane-5^3-yl) methanesulfonamide]",101%

# The remaining lines, values ahead:
row,Emax,SMILES
1,102%,"C[C@@H]1C[C@H](NS(C)(=O)=O)[C@@H]2COC3CCC(CC3)c3ccccc3/C=C/OC(=O)N12 [Example 2, N-((2^1R,2^4R,5^2R,5^3S,5^5R,E)-5^5-methyl-6-oxo-3,7-dioxa-5(2,1)-pyrrolidina-1(1,2)-benzena-2(1,4)-cyclohexanacyclonaphan-8-en-5^3-yl)methanesulfonamide]"
2,101%,"C[C@@H]1C[C@H](NS(=O)(=O)N(C)C)[C@@H]2COC3CCC(CC3)c3ccccc3CCOC(=O)N12 [Example 4, N′-((2′R,2^4R,5^2R,5^3S,5^5R)-5^5-methyl-6-oxo-3,7-dioxa-5(2,1)-pyrrolidina-1(1,2)-benzena-2(1,4)-cyclohexanacyclononaphane-5^3-yl)-N,N-dimethyl-sulfamide]"
3,100%,"C[C@@H]1C[C@H](NS(C)(=O)=O)[C@@H]2COC3CCC(CC3)c3ccccc3CCOC(=O)N12 [Example 5, N-((2^1R,2^4R,5^2R,5^3S, 5^5R)-5^5-methyl-6-oxo-3,7-dioxa-5(2,1)-pyrrolidina-1(1,2)-benzena-2(1,4)-cyclo-hexanacyclonaphane-5^3-yl)methane sulfonamide]"
4,100%,"C[C@@H]1C[C@H](NS(=O)(=O)N(C)C)[C@@H]2COC3CCC(CC3)c3cccc(c3)OCCCCCC(=O)N12 [Example 8, N′-((2^1S,2^4S,5^2R,5^3S,5^5R)-5^5-methyl-6-oxo-3,12-dioxa-5(2,1)-pyrrolidina-1(1,3)-benzena-2(1,4)-cyclohexanacyclododecaphane-5^3-yl)-N,N-dimethyl-sulfamide]"
5,100%,"C[C@@H]1C[C@H](NS(=O)(=O)N(C)C)[C@@H]2COC3CCC(CC3)c3cccc(c3)OCCC=CC(=O)N12 [Example 9, N′-((2^1S,2^4S,5^2R,5^3S, 5^5R)-5^5-methyl-6-oxo-3,11-dioxa-5(2,1)-pyrrolidina-1(1,3)-benzena-2(1,4)-cyclohexanacycloundecaphan-7-en-5^3-yl)-N,N-dimethyl-sulfamide]"
6,101%,"C[C@@H]1C[C@H](NS(=O)(=O)N(C)C)[C@@H]2COC3CCC(CC3)c3cccc(c3)OCCCCC(=O)N12 [Example 10, N′-((2^1S,2^4S,5^2R,5^3S, 5^5R)-5^5-methyl-6-oxo-3,11-dioxa-5(2,1)-pyrrolidina-1(1,3)-benzena-2(1,4)-cyclohexanacycloundecaphane-5^3-yl)-N,N-dimethyl-sulfamide]"
7,101%,"C[C@@H]1C[C@H](NS(=O)(=O)N(C)C)[C@@H]2COC3CCC(CC3)c3cccc(c3)OCCCCOC(=O)N12 [Example 11, N′-((2^1S,2^4S,5^2R,5^3S,5^5R)-5^5-methyl-6-oxo-3,7,12-trioxa-5(2,1)-pyrrolidina-1(1,3)-benzena-2(1,4)-cyclohexanacyclododecaphane-5^3-yl)-N,N-dimethyl-sulfamide]"
8,101%,"C[C@@H]1C[C@H](NS(=O)(=O)N(C)C)[C@@H]2CO[C@H]3CC[C@H](CC3)c3cccc(c3)CCCCCC(=O)N12 [Example 12, N′-((2^1S,2^4S,5^2R,5^3S,5^5R)-5^5-methyl-6-oxo-3-oxa-5(2,1)-pyrrolidina-1(1,3)-benzena-2(1,4)cyclohexanacycloundecaphane-5^3-yl)-N,N-dimethyl-sulfamide]"
9,100%,"C[C@@H]1C[C@H](NS(=O)(=O)N(C)C)C2COC3CCC(CC3)c3cccc(c3)OCCCC(=O)N21 (stereo partly shown) [Example 14, N′-((2^1S,2^4S,5^2R, 5^3S,5^5R)-5^5-methyl-6-oxo-3,10-dioxa-5(2,1)-pyrrolidina-1(1,3)-benzena-2(1,4)-cyclohexana-cyclodecaphane-5^3-yl)-N,N-methyl-sulfamide]"
10,100%,"C[C@@H]1C[C@H](NS(C)(=O)=O)C2COC3CCC(CC3)c3cccc(c3)OCCOC(=O)N21 (stereo partly shown) [Example 17, N-((2^1S,2^4S, 5^2R,5^3S,5^5R)-5^5-methyl-6-oxo-3,7,10-trioxa-5(2,1)-pyrrolidina-1(1,3)-benzena-2(1,4)-cyclohexana-cyclodecaphane-5^3-yl) methanesulfonamide]"
11,100%,"C[C@@H]1C[C@H](NS(C)(=O)=O)C2COC3CCC(CC3)c3cccc(c3)OCCCOC(=O)N21 (stereo partly shown) [Example 18, N-((2^1S,2^4S, 5^2R,5^3S,5^5R)-5^5-methyl-6-oxo-3,7,11-trioxa-5(2,1)-pyrrolidina-1(1,3)-benzena-2(1,4)-cyclohexana-cyclounde-caphane-5^3-yl) methanesulfonamide]"

# Same assay, conditions: hOX2R IP-One; percentage of mean max effect of a reference compound at 1 uM with 100% activity
row,SMILES,Emax (%)
1,"CS(=O)(=O)NC1CCCN2C(=O)CCCOc3cccc(c3)C3CCC(C3)OCC12 (single isomer, unassigned) [Example 34, N-((2^1S,2^3R,5^2R,5^3S)-6-oxo-3,10-dioxa-5(2,1)-piperidina-1(1,3)-benzena-2(1,3)-cyclopentanacyclodecaphane-5^3-yl)methanesulfonamide]",5.0%
2,"CS(=O)(=O)NC1CCCN2C(=O)CCCOc3cccc(c3)C3CCC(C3)OCC12 (single isomer, unassigned) [Example 35, N-((2^1S,2^3R,5^2R,5^3S)-6-oxo-3,10-dioxa-5(2,1)-piperidina-1(1,3)-benzena-2(1,3)-cyclopentanacyclodecaphane-5^3-yl)methanesulfonamide]",100.1%
3,"CS(=O)(=O)NC1CCCN2C(=O)CCCOc3cccc(c3)C3CCC(C3)OCC12 (single isomer, unassigned) [Example 36, N-((2^1S,2^3R,5^2R,5^3S)-6-oxo-3,10-dioxa-5(2,1)-piperidina-1(1,3)-benzena-2(1,3)-cyclopentanacyclodecaphane-5^3-yl)methanesulfonamide]",103.3%
4,"CN(C)S(=O)(=O)NC1CCN2C(=O)OCCCCc3cccc(c3)C3CCC(CC3)OCC12 (stereo not shown) [Example 21, N′-((2^1S,2^4S,5^2R,5^3S)-6-oxo-3,7-dioxa-5(2,1)-pyrrolidina-1(1,3)-benzena-2(1,4)-cyclohexanacycloundecaphane-5^3-yl)-N,N-dimethyl-sulfamide]",100.5%

# Second part, the compound after the results:
row,Emax (%),SMILES
1,100.8%,"CN(C)S(=O)(=O)NC1CCCN2C(=O)OCCc3ccccc3C3CCC(CC3)OCC12 (single isomer, unassigned) [Example 38, N′-((2^1S,2^4S,5^2R,5^3S)-6-oxo-3,7-dioxa-5(2,1)-piperidina-1(1,2)-benzena-2(1,4)-cyclohexanacyclononaphane-5^3-yl)-N,N-dimethyl-sulfamide]"
2,4.4%,"CN(C)S(=O)(=O)NC1CCCN2C(=O)OCCc3ccccc3C3CCC(CC3)OCC12 (single isomer, unassigned) [Example 39, N′-((2^1S,2^4S,5^2R,5^3S)-6-oxo-3,7-dioxa-5(2,1)-piperidina-1(1,2)-benzena-2(1,4)-cyclohexanacyclononaphane-5^3-yl)-N,N-dimethyl-sulfamide]"
3,71.6%,"CN(C)S(=O)(=O)NC1CCCN2C(=O)OCCc3ccccc3C3CCC(CC3)OCC12 (single isomer, unassigned) [Example 40, N′-((2^1S,2^4S,5^2R,5^3S)-6-oxo-3,7-dioxa-5(2,1)-piperidina-1(1,2)-benzena-2(1,4)-cyclohexanacyclononaphane-5^3-yl)-N,N-dimethyl-sulfamide]"
4,99.3%,CC1CC(NS(=O)(=O)N(C)C)C2COC3CCC(CC3)c3cccc(c3)OCCCOC(=O)N12 (stereo not shown) [Example 13]
